Results on 4 compounds are retold here after publication PMC5100903, “Tissue Kallikrein Inhibitors Based on the Sunflower Trypsin Inhibitor Scaffold – A Potential Therapeutic Intervention for Skin Diseases” (PLoS ONE, 2016).

Molecules are shown by their SMILES. Where two headings read alike, the source gives them in different places. Positions of bridges follow the written chain, without caps; N, C: chain ends. Residues, ends and D or L forms follow the SMILES beside them.

Test [1] addresses T1, Matriptase (catalytic domain only) (Homo sapiens, UniProt Q9Y5Y6).
T1 construct: matriptase (catalytic domain only, >90% purity by SDS-PAGE); purchased R&D
T1 sequence (Q9Y5Y6 615-854 limits assumed): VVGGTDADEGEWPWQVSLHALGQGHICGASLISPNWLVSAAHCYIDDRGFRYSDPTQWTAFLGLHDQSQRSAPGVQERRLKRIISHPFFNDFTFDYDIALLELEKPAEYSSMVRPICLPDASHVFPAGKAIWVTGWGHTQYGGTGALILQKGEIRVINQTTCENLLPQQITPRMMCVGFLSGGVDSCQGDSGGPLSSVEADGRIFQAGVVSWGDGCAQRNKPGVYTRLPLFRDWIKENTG
Nature of the test: biochemical. As for the experimental part:
(§1) All assays were performed on 96-well microplates and the change in relative fluorescence unit (RFU) was measured by fluorescence spectrometer (BMG FLUOstar OPTIMA). The excitation/emission wavelength was 360/460 nm for the substrate Boc-VPR-AMC (Bachem AG, Hauptstrasse, Switzerland) and MeOSuc-AAPV-AMC (Bachem AG, Hauptstrasse, Switzerland) and 485/520 nm for BODIPY_FL casein (Invitrogen, Carlsbad, US). Stock solution of Boc-VPR-AMC was prepared by dissolving the solid in dimethyl sulfoxide to 100 mM and 10 mM for MeOSuc-AAPV. For BODIPY_FL casein, it was reconstituted to 1 mg/mL in 1xPBS. […] The % of inhibition was calculated by the following equation: % of Inhibition=(1−(Sample RFU − Min RFU)/(Max RFU − Min RFU)) X100
(§2) Each inhibition curves were done in triplicates with a minimum of five concentration points fitted. Fitting of each curve was done using SigmaPlot with the Four Parameter Logistic Function and the IC50 calculated. […] All tested compounds were reconstituted to stock solution in water.
(§3) The diluent for all the tested compounds, protein and substrate (except KLK7, which was done with 10 mM Tris pH 7.8) was 1xPBS pH 8.0–8.9. The serially diluted ligands were mixed with diluted bovine trypsin (Sigma, Dorset, U.K.) or activated KLK14, or KLK5, or activated KLK8 or matriptase (catalytic domain only, >90% purity by SDS-PAGE, endotoxin <0.1 ng/μg, R&D, Minneapolis, U.S.) or activated KLK7 or human neutrophil elastase (purified from human plasma, >95% purity by SDS-PAGE, Abcam, Cambridge, U.K.) or porcine pancreatic elastase 1 (Sigma, Dorset, U.K.) or human plasma kallikrein or human plasma plasmin (purified from human plasma, ≥95% purity by SDS-PAGE, BioVision, Milpitas, U.S.). 20μL of the ligand-protein mixture was pipetted to a well of a 96-well microplate in triplicates. The reaction was started by addition of 90–100 μL of the diluted substrate solution (contained 0.05% v/v Brij35) and the plate incubated at 25°C but 37°C for KLK7. RFU reading for each well was taken 6 minutes (trypsin) or 15 minutes (KLK14, KLK5, KLK8, matriptase, human neutrophil elastase, porcine pancreatic elastase 1, plasma kallikrein and plasmin) or 20 hours (KLK7) after substrate addition.

The target of test [2] is T2, Human Plasma Plasmin (Homo sapiens, UniProt P00747).
T2 construct: human plasma plasmin (purified from human plasma); purchased BioVision; host or cells: human plasma
Put plainly: biochemical. How it is done: as §1, §2, §3

In test [3] the target is Human Plasma Kallikrein (Homo sapiens, UniProt P03952). Put plainly: Human plasma kallikrein inhibition, Boc-VPR-AMC assay. Format: biochemical. Particulars: read-out: % inhibition of Human Plasma Kallikrein. How it is done: as §1, §2, §3
For test [4], the target named is T3, Porcine Pancreatic Elastase 1 (Sus scrofa, UniProt P00772).
T3 construct: purchased Sigma
Put plainly: Porcine pancreatic elastase 1 inhibition, MeOSuc-AAPV-AMC assay. Format: biochemical. Particulars: read-out: % inhibition of Porcine Pancreatic Elastase 1. As for the experimental part: as §1, §2, §3

Test [5] addresses T4, KLK5 (Homo sapiens, UniProt Q9Y337).
T4 construct: purchased Novoprotein
T4 sequence (Q9Y337 23-293): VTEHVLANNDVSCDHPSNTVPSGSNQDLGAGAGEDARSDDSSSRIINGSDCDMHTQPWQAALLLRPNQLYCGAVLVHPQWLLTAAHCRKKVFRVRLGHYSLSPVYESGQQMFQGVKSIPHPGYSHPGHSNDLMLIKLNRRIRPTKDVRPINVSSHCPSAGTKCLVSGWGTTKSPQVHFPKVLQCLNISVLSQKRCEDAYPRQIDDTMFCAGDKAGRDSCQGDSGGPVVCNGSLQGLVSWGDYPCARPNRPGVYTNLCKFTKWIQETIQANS
Put plainly: biochemical. How it is done:
as §1, §2, §3
There are two previously reported Km values for KLK5 and its substrate Boc-VPR-AMC which allowed the IC50 to Ki conversion. Ki values were calculated according to the Cheng-Prusoff equation Ki= IC50/1+[S]/Km for single site competitive binding.

[6] abbreviates: calculated from Table 3 IC50 by Cheng-Prusoff equation, read-out: Ki, KLK5 (converted).
[7] abbreviates: enzyme 10 nM, Boc-VPR-AMC 42 μM, 1xPBS pH 8.0–8.9, 25°C, 15 minutes.
Where [8] appears, read: enzyme 24 nM, Boc-VPR-AMC 42 μM, 25°C, 15 minutes.
[9] abbreviates: at 10 μM, enzyme 14 nM, Boc-VPR-AMC 42 μM.
Where [10] appears, read: at 10 μM, enzyme 46 nM, MeOSuc-AAPV-AMC 41 μM.

T3 sequence (P00772 27-266): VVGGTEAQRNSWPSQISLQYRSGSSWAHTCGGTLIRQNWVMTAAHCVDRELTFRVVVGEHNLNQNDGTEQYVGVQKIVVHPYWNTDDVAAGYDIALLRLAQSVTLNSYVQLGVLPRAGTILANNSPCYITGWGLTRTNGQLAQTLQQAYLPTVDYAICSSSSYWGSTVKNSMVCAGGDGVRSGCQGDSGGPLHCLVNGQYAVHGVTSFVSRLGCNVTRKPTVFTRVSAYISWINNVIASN
T2 sequence (P00747 581-810 limits assumed): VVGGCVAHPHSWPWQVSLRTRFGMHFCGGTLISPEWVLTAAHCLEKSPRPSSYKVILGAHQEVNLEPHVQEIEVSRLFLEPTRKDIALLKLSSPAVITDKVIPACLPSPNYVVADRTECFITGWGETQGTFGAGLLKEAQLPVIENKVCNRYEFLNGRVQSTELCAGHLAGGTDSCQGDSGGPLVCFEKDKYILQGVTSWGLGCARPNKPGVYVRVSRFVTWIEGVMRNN
T2 sequence (P00747 98-580 partner limits assumed): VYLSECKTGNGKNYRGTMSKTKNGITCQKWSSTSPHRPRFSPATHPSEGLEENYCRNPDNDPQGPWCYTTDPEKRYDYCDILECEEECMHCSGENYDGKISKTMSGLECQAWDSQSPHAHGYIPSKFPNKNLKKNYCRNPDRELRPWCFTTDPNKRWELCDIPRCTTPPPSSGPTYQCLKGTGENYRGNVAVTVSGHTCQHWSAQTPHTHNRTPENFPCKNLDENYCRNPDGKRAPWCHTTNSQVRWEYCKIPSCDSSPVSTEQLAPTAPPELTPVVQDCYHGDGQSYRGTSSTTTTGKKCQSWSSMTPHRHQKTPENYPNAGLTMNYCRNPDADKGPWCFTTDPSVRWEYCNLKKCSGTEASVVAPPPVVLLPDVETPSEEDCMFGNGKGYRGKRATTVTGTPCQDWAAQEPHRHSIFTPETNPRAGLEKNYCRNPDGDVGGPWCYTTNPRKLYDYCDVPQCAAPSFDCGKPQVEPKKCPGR
Chain of Human Plasma Kallikrein (P03952 20-638): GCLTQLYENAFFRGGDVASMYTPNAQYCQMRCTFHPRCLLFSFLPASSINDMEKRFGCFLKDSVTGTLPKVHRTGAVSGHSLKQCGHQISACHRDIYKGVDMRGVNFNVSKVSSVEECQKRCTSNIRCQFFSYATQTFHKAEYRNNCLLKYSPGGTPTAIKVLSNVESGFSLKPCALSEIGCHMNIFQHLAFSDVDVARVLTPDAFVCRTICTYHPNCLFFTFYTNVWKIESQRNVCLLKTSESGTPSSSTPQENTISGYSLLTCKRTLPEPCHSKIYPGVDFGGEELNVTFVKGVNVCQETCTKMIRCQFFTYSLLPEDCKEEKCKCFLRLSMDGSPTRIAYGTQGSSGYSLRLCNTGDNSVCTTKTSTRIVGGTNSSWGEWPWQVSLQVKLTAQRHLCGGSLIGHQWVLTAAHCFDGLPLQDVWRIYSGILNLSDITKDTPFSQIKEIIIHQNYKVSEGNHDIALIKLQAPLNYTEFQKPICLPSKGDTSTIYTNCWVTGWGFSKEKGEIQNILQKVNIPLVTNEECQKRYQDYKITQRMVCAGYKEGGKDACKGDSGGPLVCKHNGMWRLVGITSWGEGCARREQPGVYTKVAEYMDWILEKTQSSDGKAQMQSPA

On to `CC[C@H](C)[C@@H]1NC(=O)[C@H](CO)NC(=O)[C@H](CCCCN)NC(=O)[C@H]([C@@H](C)O)NC(=O)[C@@H]2CSSC[C@H](NC(=O)[C@H](Cc3c[nH]cn3)NC(=O)[C@@H]3CCCN3C(=O)[C@@H]3CCCN3C1=O)C(=O)N[C@@H](Cc1c[nH]c3ccccc13)C(=O)N1CCC[C@H]1C(=O)N[C@@H](CC(=O)O)C(=O)NCC(=O)N[C@@H](CCCNC(=N)N)C(=O)N2` [Analogue 2] (cyclo(CTKSIPPHCWPDGR); disulfide 1-9), for which the IC50 – broadly, the point on the concentration scale where inhibition reaches its midpoint – in test [1] turned out to be 206 ± 10 nM; in test [2] it was 25 ± 1 nM. Further, the inhibition at 10 µM in test [3] and in test [4] was 0% each time.

Consider `CC[C@H](C)[C@@H]1NC(=O)[C@H](CO)NC(=O)[C@H](CCCNC(=N)N)NC(=O)[C@H]([C@@H](C)O)NC(=O)[C@@H]2CSSC[C@H](NC(=O)[C@H](Cc3c[nH]cn3)NC(=O)[C@@H]3CCCN3C(=O)[C@@H]3CCCN3C1=O)C(=O)N[C@@H](Cc1c[nH]c3ccccc13)C(=O)N1CCC[C@H]1C(=O)N[C@@H](CC(=O)O)C(=O)NCC(=O)N[C@@H](CCCNC(=N)N)C(=O)N2` [Analogue 6] (cyclo(CTRSIPPHCWPDGR); disulfide 1-9), for which the IC50 was 56 ± 0.5 nM in test [5], 381 ± 12 nM in test [1] and 407 ± 8 nM in test [2]. In addition, the Ki (usually the equilibrium dissociation constant of an inhibitor or competing ligand from its target) in test [5] is 51 nM. In addition, the inhibition (as a rule, the change of the read-out against control, counted positive when it falls) at 10 µM in test [3] worked out at 15%; in test [4], 0%.

As for `CC[C@H](C)[C@@H]1NC(=O)[C@H](CO)NC(=O)[C@H](CCCCN)NC(=O)[C@H]([C@@H](C)O)NC(=O)[C@@H]2CSSC[C@H](NC(=O)[C@H](Cc3c[nH]cn3)NC(=O)[C@@H]3CCCN3C(=O)[C@@H]3CCCN3C1=O)C(=O)N[C@@H](Cc1ccccc1)C(=O)N1CCC[C@H]1C(=O)N[C@@H](CC(=O)O)C(=O)NCC(=O)N[C@@H](CCCNC(=N)N)C(=O)N2` [Analogue I10H] (cyclo(CFPDGRCTKSIPPH); disulfide 1-7), in test [5] (setting [6]), the Ki is 478 nM. In addition, the IC50 was 523 ± 11 nM in test [5] (setting [7]); 2240 ± 567 nM in test [1] (enzyme 10 nM, Boc-VPR-AMC 21 μM, 25°C, 15 minutes); 161 ± 6 nM in test [2] (setting [8]). Also, the inhibition at 10 µM in test [3] (setting [9]) and in test [4] (setting [10]) was 0% each time.

As for `CC[C@H](C)[C@@H]1NC(=O)[C@@H]2CCCN2C(=O)[C@@H]2CCCN2C(=O)[C@H]([C@@H](C)CC)NC(=O)[C@H](CO)NC(=O)[C@H](CCCCN)NC(=O)[C@H]([C@@H](C)O)NC(=O)[C@@H]2CSSC[C@H](NC1=O)C(=O)N[C@@H](Cc1ccccc1)C(=O)N1CCC[C@H]1C(=O)N[C@@H](CC(=O)O)C(=O)NCC(=O)N[C@@H](CCCNC(=N)N)C(=O)N2` [Native SFTI, Sunflower Trypsin Inhibitor 1, reference compound], the Ki in test [5] (setting [6]) was 210 nM. Further, the half-inhibitory concentration (IC50) in test [5] (setting [7]) is 230 ± 3 nM; in test [1], 1250 ± 57 nM; in test [2] (setting [8]), 24 ± 4 nM. The inhibition at 10 µM in test [3] (setting [9]) and in test [4] (setting [10]) was 0% each time.
